Marks after values point to notes of the source that are not given here.
What was measured:
splenocytes [1] = assay: Cell viability of splenocytes, trypan blue exclusion, cyclophosphamide-induced immunosuppression (Example II); type: in vivo, Swiss albino mice; conditions: 10 mg/kg body weight p.o. 7 days + cyclophosphamide 250 mg/kg i.p.; Mean ± SD, n = 6
Experimental: (§1) The mice were acclimatized for one week in the laboratory conditions, before being used in the experiment. All experiments were conducted between 10.00 hr and 14.00 hr. Principles of laboratory animal care (NIH publication no. 85-23, revised 1985) were followed.
(§2) All test compounds (DBPs and DBP glycosides) were suspended in 0.3% of CMC (Carboxymethyl Cellulose) solutions of distilled water and were administered orally for 7 days by using an intubation canula. The volume of dose was 100 μl/10 g body weight. Cyclophosphamide was dissolved in distilled water and was injected (250 mg/kg, i.p.) on day one and volume of dose was 100 μl/10 g body weight. Control animals received equivalent volume of the vehicles CMC (0.3%) solutions only.
Spleen was collected. Single cell suspension was prepared by mincing and tapping the spleen fragments on stainless steel 200-mesh in ice cold phosphate buffer saline (PBS: 0.15M NaCl pH 7.4). Cell suspension was centrifuged at 2000 rpm for 10 minutes. The pellet was re-suspended in PBS and cell viability was confirmed by trypan blue exclusion method.

peritoneal macrophages [2] = assay: Peritoneal macrophage viability, trypan blue exclusion (Example III); type: in vivo, Swiss albino mice; conditions: for peritoneal macrophage viability compared with vehicle control: cyclophosphamide, 3-OH-DBP 2 mg/kg, 3,8-(OH)2-DBP 10 mg/kg
Experimental: (§3) Male and female Swiss albino mice (n=8; 4 from each gender) weighing approximately 25±5 g, were obtained from National Research Institute of Ayurveda for Drug Development (Govt. of India), Kolkata, and were housed in polypropylene cages at 22±3° C., relative air humidity of 45 to 55%, with 12.00 h light & dark cycle (lighting on from 6:00 AM to 6:00 PM). […] The mice were acclimatized for one week in the laboratory conditions, before being used in the experiment. All experiments were conducted between 10.00 h and 14.00 h. Principles of laboratory animal care (NIH publication no. 85-23, revised 1985) was followed.
(§4) Cyclophosphamide was dissolved in distilled water and the mice were administered a single exposure (250 mg/kg, i.p.) on day 1.
(§5) 3-OH-DBP, 3,8-(OH)2-DBP, and combined 3-OH-DBP+3,8-(OH)2-DBP were administered once daily for 7 days starting from day 1. Following 7 days of treatment the mice were anaesthetized and sacrificed under anaesthesia followed by collection of peritoneal macrophages and spleen (for splenocyte isolation).
(§6) Swiss albino mice were randomly divided into 8 Groups (n=8; 4 from each gender). […] (2:10) (12 mg/kg b.w., p.o.), Group VI mice were administered 3-OH-DBP (10 mg/kg b.w., p.o.), Group VII mice were administered 3,8-(OH)2-DBP (50 mg/kg b.w., p.o.), Group VIII mice were administered [3-OH-DBP+3,8-(OH)2-DBP] (10:50) (60 mg/kg b.w., p.o.).
(§7) All the animals were sacrificed under ether anesthesia and peritoneal macrophages were lavaged using ice cold phosphate buffer saline (PBS: 0.15 M NaCl; pH: 7.4). After centrifugation (3000 rpm×10 min) at 4° C., pellets were re-suspended in PBS and cell viability was confirmed by trypan blue exclusion assay.
(§8) Results were expressed in terms of mean±SEM (n=8; 4 from each gender). Data were subjected to one way ANOVA followed by Tukey's test using GraphPad Prism 4.0 software to establish statistical significance (*p<0.05, **p<0.01, ***p<0.001, where * refers to comparison with Group I vehicle control; #p<0.05, ##p<0.01, ###p<0.001, where #refers to comparison with Group II cyclophosphamide administration; ^ap<0.05, ^aap<0.01, ^aap<0.01, where a refers to comparison of Day 7 with Day 0).

peritoneal macrophages [3] = assay: NBT reduction assay in peritoneal macrophages, cyclophosphamide-induced immunosuppression (Example II); type: in vivo, Swiss albino mice; conditions: for OD (515 nm), NBT reduction assay in peritoneal macrophages: 10 mg/kg body weight p.o. 7 days + cyclophosphamide 250 mg/kg i.p., Mean ± SD, n = 6
Experimental: as §1, §2
On day seven all the animals were sacrificed under ether anesthesia and peritoneal macrophages were lavaged using ice cold phosphate buffer saline (PBS: 0.15M NaCl pH-7.4). After centrifugation (3000 rpm×10 min) at 4° C. the pellet was re-suspended in PBS and cell viability was confirmed by trypan blue exclusion method. (Bala A, Haldar P K, Kar B, Naskar S and Mazumder U K, “Carbon tetrachloride: A hepatotoxin causes oxidative stress in murine peritoneal macrophage and peripheral blood lymphocyte cells” Immunopharmacol. and Immunotoxicol. 34(1): 157-162 (2012)).
Preparation of NBT solution: 0.2% NBT (nitroblue tetrazolium) in PB (Phosphate Buffer, pH 7.4), 5% dextrose and HBSS (Hank's balanced salt solution). The three solutions were mixed in 6:2:4 ratios. (Saxena A K, Singh K P, Srivastava S N, Shukla L J and Shanker R., “Immunomodulating effects of caffeine in rodents” Ind J Exptl Biol. 22: 298-301 (1984)).
Method: 0.5 ml of NBT solution was added to 0.5 ml of peritoneal macrophages (1×10^6 cells/ml) in a micro-centrifuge tube. This mixture was incubated at 37° C. for 45 minutes. The cell suspension was centrifuged at 1500 rpm for 10 minutes. Supernatant was discarded and pellet was re-suspended in 2 ml of DMSO. The tubes were kept in a boiling water bath for 10 minutes. The tubes were again centrifuged at 1500 rpm for 10 minutes. The supernatant was collected, and absorbance was measured at 515 nm.

peritoneal macrophages [4] = assay: NBT reduction of peritoneal macrophages (Example III); type: in vivo, Swiss albino mice; conditions: for NBT reduction compared with cyclophosphamide treated mice: 3,8-(OH)2-DBP 50 mg/kg, combined 12 and 60 mg/kg; for NBT reduction compared with vehicle control: cyclophosphamide, 3-OH-DBP 2 and 10 mg/kg, combined 12 mg/kg
Experimental: as §3, §4, §5, §6, §7
Preparation of NBT solution: 0.2% NBT (nitroblue tetrazolium) in PBS (pH 7.4), 5% dextrose and HBSS. These three solutions were mixed in 6:2:4 ratios.
0.5 ml of NBT solution was added to 0.5 ml of peritoneal macrophages (1×10^6 cells/ml) in micro-centrifuge tube. This mixture was incubated at 37° C. for 2 hours. The cell suspension was centrifuged at 2000 rpm for 10 minutes. Supernatants were discarded and pellets were re-suspended in 1 ml of DMSO. The tubes were kept in boiling water bath for 10 minutes and then cooled and centrifuged at 2000 rpm for 10 minutes. The supernatants were collected and absorbance was measured at 515 nm.
as §8

splenocytes [5] = assay: Splenocyte viability, trypan blue exclusion (Example III); type: in vivo, Swiss albino mice; conditions: for % Viability Day7, splenocyte viability: Day 7; for splenocyte viability compared with vehicle control: cyclophosphamide, 2 mg/kg 3-OH-DBP, 10 mg/kg 3,8-(OH)2-DBP, 12 mg/kg combined
Experimental: as §3, §4, §5, §6
Spleens were collected and single cell suspension was prepared by mincing and tapping the spleen fragments on stainless steel 200-mesh in ice cold phosphate buffer saline (PBS: 0.15M NaCl; pH: 7.4). Cell suspensions were centrifuged at 2000 rpm for 10 minutes.
as §8

[6] = mouse, in vivo
Experimental: as §3, §4, §5, §6, §8

[7] = female mice, 3-OH-DBP 2 and 10 mg/kg, 3,8-(OH)2-DBP 10 and 50 mg/kg, combined 12 and 60 mg/kg
[8] = female mice, 10 mg/kg p.o. + cyclophosphamide 250 mg/kg i.p.
[9] = female mice, 50 mg/kg p.o. + cyclophosphamide 250 mg/kg i.p.
[10] = male mice, 3-OH-DBP 10 mg/kg, 3,8-(OH)2-DBP 50 mg/kg, combined 60 mg/kg
[11] = male mice, 10 mg/kg p.o. + cyclophosphamide 250 mg/kg i.p.
[12] = male mice, 50 mg/kg p.o. + cyclophosphamide 250 mg/kg i.p.
[13] = female mice, 3,8-(OH)2-DBP 10 and 50 mg/kg
[14] = male mice, 3,8-(OH)2-DBP 10 mg/kg
[15] = female mice, 2 mg/kg p.o. + cyclophosphamide 250 mg/kg i.p.
[16] = male mice, 2 mg/kg p.o. + cyclophosphamide 250 mg/kg i.p.

| Compound | % Cell Viability of splenocytes (splenocytes [1]) [%] | peritoneal macrophage viability compared with cyclophosphamide treated mice (peritoneal macrophages [2]; [7]) | % Viability Day 7, peritoneal macrophage viability (peritoneal macrophages [2]; [8]) | peritoneal macrophage viability compared with cyclophosphamide treated mice (peritoneal macrophages [2]; [10]) | % Viability Day 7, peritoneal macrophage viability (peritoneal macrophages [2]; [11]) | peritoneal macrophage viability compared with vehicle control (peritoneal macrophages [2]; male mice) | OD (515 nm), NBT reduction assay in peritoneal macrophages (peritoneal macrophages [3]) | NBT reduction compared with cyclophosphamide treated mice (peritoneal macrophages [4]; female mice, 3-OH-DBP 10 mg/kg) | O.D. (515 nm) Day 7, NBT reduction of peritoneal macrophages (peritoneal macrophages [4]; [8]) | NBT reduction compared with vehicle control (peritoneal macrophages [4]; [13]) | O.D (515 nm) Day 7, NBT reduction of peritoneal macrophages (peritoneal macrophages [4]; [11]) | NBT reduction compared with vehicle control (peritoneal macrophages [4]; [14]) | splenocyte viability compared with cyclophosphamide treated mice (splenocytes [5]; [7]) | % Viability Day7, splenocyte viability (splenocytes [5]; [8]) | splenocyte viability compared with cyclophosphamide treated mice (splenocytes [5]; [10]) | % Viability Day7, splenocyte viability (splenocytes [5]; [11]) | splenocyte viability compared with vehicle control (splenocytes [5]; male mice) | feed intake Day 7 in comparison to Day 0 [6] | feed intake compared to vehicle control [6] | water intake compared with cyclophosphamide treated mice [6] | other results |
| --- | --- | --- | --- | --- | --- | --- | --- | --- | --- | --- | --- | --- | --- | --- | --- | --- | --- | --- | --- | --- | --- |
| O=c1oc2cc(O)ccc2c2ccc(O)cc12 [3,8-(OH)2-DBP, 3,8-dihydroxy-dibenzo-alpha-pyrone] | 54.90 ± 5.01 | significantly (p<0.05, p<0.01) increased | 65.78 ± 2.38** % | significantly (p<0.05, p<0.01) increased | 60.34 ± 1.84% | significantly (p<0.05) decreased | 0.144 ± 0.010^ | significantly (p<0.05, p<0.01, p<0.001) increased | 0.159 ± 0.02*** | significantly (p<0.05, p<0.01, p<0.001) decreased | 0.294 ± 0.04499*** | significantly (p<0.01, p<0.001) decreased | significantly (p<0.05, p<0.01, p<0.001) increased | 89.50 ± 2.30# % | significantly higher | 68.69 ± 2.21*** % | similarly decreased | significantly (p<0.05, p<0.01) decreased | significantly (p<0.05, p<0.01) decreased | significantly (p<0.001) decreased | % Viability Day 7, peritoneal macrophage viability (peritoneal macrophages [2]; [9]): 75.27 ± 0.53^# %; % Viability Day 7, peritoneal macrophage viability (peritoneal macrophages [2]; [12]): 70.91 ± 1.24# %; O.D. (515 nm) Day 7, NBT reduction of peritoneal macrophages (peritoneal macrophages [4]; [9]): 0.294 ± 0.008*,###; NBT reduction compared with cyclophosphamide treated mice (peritoneal macrophages [4]; male mice, NBT reduction capacity increased): significantly (p<0.05, p<0.01, p<0.001) reversed; O.D (515 nm) Day 7, NBT reduction of peritoneal macrophages (peritoneal macrophages [4]; [12]): 0.476 ± 0.07172##; % Viability Day7, splenocyte viability (splenocytes [5]; [9]): 90.87 ± 1.98## %; restoration of splenocyte viability (splenocytes [5]; male mice, 50 mg/kg 3,8-(OH)2-DBP (Group VII), 60 mg/kg DBP combination (Group VIII)): restored; % Viability Day7, splenocyte viability (splenocytes [5]; [12]): 90.14 ± 0.36## %; body weight Day 7 in comparison to Day 0 [6]: significantly (p<0.05) decreased; water intake compared with vehicle control [6]: significantly (p<0.001) decreased; water intake compared with vehicle control and cyclophosphamide treated mice [6]: significantly (p<0.05, p<0.001) decreased |
| O=c1oc2cc(O)ccc2c2ccccc12 [3-OH-DBP, 3-hydroxy-dibenzo-alpha-pyrone] | 59.70 ± 3.59 | significantly (p<0.05, p<0.01) increased | 72.56 ± 2.01^# % | significantly (p<0.05, p<0.01) increased | 69.64 ± 2.77# % | significantly (p<0.05) decreased | 0.154 ± 0.019 | significantly (p<0.05, p<0.01, p<0.001) increased | 0.207 ± 0.02**,## | significantly (p<0.05, p<0.01, p<0.001) decreased | 0.232 ± 0.04097*** | significantly (p<0.01, p<0.001) decreased | significantly (p<0.05, p<0.01, p<0.001) increased | 90.77 ± 1.77## % | significantly higher | 80.9 ± 1.24## % | similarly decreased | significantly (p<0.05, p<0.01) decreased | significantly (p<0.05, p<0.01) decreased | significantly (p<0.001) decreased | % Viability Day 7, peritoneal macrophage viability (peritoneal macrophages [2]; [15]): 62.53 ± 2.14** %; % Viability Day 7, peritoneal macrophage viability (peritoneal macrophages [2]; [16]): 59.90 ± 0.51* %; improvement in NBT reduction capacity (peritoneal macrophages [3]; 10 mg/kg body weight p.o., in comparison with cyclophosphamide treated mice): moderate (p<0.05) improvement; O.D. (515 nm) Day 7, NBT reduction of peritoneal macrophages (peritoneal macrophages [4]; [15]): 0.142 ± 0.005***; O.D (515 nm) Day 7, NBT reduction of peritoneal macrophages (peritoneal macrophages [4]; [16]): 0.257 ± 0.02338***; % Viability Day7, splenocyte viability (splenocytes [5]; [15]): 88.40 ± 1.61# %; % Viability Day7, splenocyte viability (splenocytes [5]; [16]): 69.34 ± 1.84*** %; water intake compared with vehicle control [6]: significantly (p<0.001) decreased; water intake compared with vehicle control and cyclophosphamide treated mice [6]: significantly (p<0.05, p<0.001) decreased |

From patent US20220098228A1, “METHODS AND COMPOSITIONS FOR IMPROVING THE IMMUNE SYSTEM AND PROVIDING IMMUNO-PROTECTION” (Natreon, Inc., priority 2020, published 2022)
